Test results: patent publication US4835252A, “Vasoactive intestinal peptide analogs” (The Salk Institute Biotechnology/Industrial Associates, Inc., priority 1987, dated 1989)
No end group written: not given here.

What was measured:
[1] = Stability against proteolytic degradation in crude rat-lung homogenate; conditions: 10^-5 M peptide in crude rat lung homogenate, 37° C., intact peptide by HPLC
Description: The stability of naturally occurring, human VIP and various analogs described in Example I was assessed by determining their resistance to degradation when incubated with a crude rat-lung homogenate.
For the assay, the lungs were taken from a female Sprague-Dawley rat and were perfused with ice-cold phosphate-buffered saline, as described in Example II. The whitened lungs were polytroned and then homogenized in Degradation Assay Buffer (25 mM Tris, 5 mM MgCl2, pH 7.4), and the homogenate was filtered through cheesecloth. The filtrate was then diluted to a final volume of 500 ml with Degradation Assay Buffer, to yield the crude lung homogenate.
Resistance to degradation was measured by determining the half-life of the human VIP or analog in the crude lung homogenate. To determine these half-lives, the human VIP or analog was added to 1 ml of the crude homogenate to a concentration of 10^-5 M, and the mixture was incubated at 37° C. After incubation for the desired time period, the sample was placed in a 100° C. bath and boiled for 5 minutes, and then acidified with glacial acetic acid (10% final volume) and, finally, cooled rapidly by being placed on dry ice. The sample was then microfuged at 4° C. for 15 minutes, and the supernatant analysized for peptide content by HPLC.

[2] = molecular target: VIP receptors in rat lung membrane
Description: Radioreceptor assays were carried out to determine the affinities of analogs of Example I for VIP receptors in rat lung membrane, following Leroux et al., Endocrinology 114, 1506-1512 (1984).
The following buffers were prepared:
Buffer A: 250 mM sucrose, 5 mM MgCl2, 25 mM Tris, pH 7.4
Buffer B: 5 mM MgCl2, 25 mM Tris, pH 7.4
Buffer C: 25 mM Tris, 5 mM MgCl2, 1 mg/ml bacitracin, 2 mg/ml bovine serum albumin ("BSA"), pH 7.4
Phenylmethylsulfonyl fluoride ("PMSF") was added, to a final concentration of 1 mM, to the buffers immediately prior to their use.
^125 I-labeled, human VIP (^125 I-VIP) was purchased from New England Nuclear (Boston, Mass., U.S.A.). The peptide as purchased was diluted to 10^-5 Ci/ml with Buffer C and stored in 25 ul or 50 ul aliquots at -20° C., which were subsequently diluted with Buffer C, as described below, for the assays.
Rat lung membrane was prepared for the assay as follows, following Leroux et al., supra: Five female Sprague-Dawley rats (200-250 g) were sacrificed and their hearts perfused with iced, phosphate-buffered saline (PBS) through the right atrium (approximately 30 ml PBS per rat). The lungs, which were whitened, were then removed and placed directly in iced PBS and any blood was rinsed from the tissue. The lung tissue was then transferred to a weighing device on ice; blood vessels, fat and the like were removed from the tissue; and the tissue was blotted and weighed. The lung tissue was then transferred to a 50 cm^3 Falcon tube with 2 ml of Buffer A per g lung tissue (approximately 25 ml Buffer A) and homogenized at 4° C. 1 minute in a polytron (Brinkmann Instruments Co., Westbury, N.Y., U.S.A.) and then with a glass/teflon homogenizer (approximately 5-6 strokes). The homogenate was filtered through two layers of cheesecloth, and the filtrate was then transferred to tubes for centrifugation at 30,000×g for 10 minutes. The pellets were then resuspended in approximately 70 ml of Buffer B using a glass/teflon homogenizer and the resulting suspensions were again centrifuged at 30,000×g for ten minutes. The resulting pellets were resuspended in 50 ml of Buffer B using a glass/teflon homogenizer. The suspension was divided into 1.0 ml aliquots in microfuge tubes, which were quickly frozen and stored on dry ice until use.
When used, an aliquot of suspension was thawed and microfuged at 4° C. for several minutes to pellet suspended material. The supernatant was carefully removed and the pellet resuspended in 1 ml of Buffer C.
Prior to use of a VIP receptor-containing suspension in an assay, the protein concentration was adjusted to 2 mg/ml by addition of Buffer C. Then 100 ul of this suspension (2 mg/ml) was combined with 100 ul of solution of ^125 I-VIP, 100 ul of solution of the VIP or analog thereof being assayed and 200 ul of Buffer C; consequently, the concentration of protein from the rat lung VIP receptor preparations used in the assays was 0.4 mg/ml.
In the radioreceptor assays, the ability of analog to displace ^125 I-VIP from binding in the receptor preparation was measured by a standard procedure. For each analog, and naturally occurring human VIP as standard, a series of solutions, of 500 ul total volume in Buffer C, containing various concentrations of analog or standard (between about 10^-11 M and 10^-6 M), ^125 I-VIP at 100 cpm/ul (about 2×10^-10 M), and receptor preparation (0.4 mg protein/ml) were assayed.

[3] = test system: dispersed guinea pig pancreatic acinar cells; experiment: Amylase-release assay with dispersed pancreatic acinar cells; assay type: cell-based; conditions: ED50 for the human VIP standard divided by ED50 for the analog; 30 minutes at 37° C.
Description: The bioactivity of analogs of Example I, chicken VIP, guinea pig VIP, and human VIP without amidation at the carboxy-terminus was determined, relative to that of naturally occurring human VIP, by an amylase-release assay employing dispersed guinea pig pancreatic acinar cells. The assay was essentially that described by Peikin et al., Am. J. Physiol. 235, E743-E749 (1978).
For the assays conducted each day, dispersed acinar cells, free of debris, were freshly prepared from a pancreas of a male or female guinea pig (120-150 gm), following generally the method described by Peikin et al., supra.
The procedure employed a "standard incubation medium," which consisted of 95 mM NaCl; 6 mM KCl; 2.5 mM NaH2 PO4; 5 mM each of sodium pyruvate, sodium fumarate and sodium glutamate; 0.5 mM CaCl2, 1.0 mM MgCl2, 11.5 mM glucose, 0.05 mg/ml glutamine; amino acids and vitamius from Eagle's Minimum Essential Medium at their concentration in such Eagle's Medium; 25 mM HEPES; 0.08 mg/ml soybean trypsin inhibitor (Calbiochem); pH 7.4.
The animal was sacrificed, its pancreas removed and the pancreas trimmed of fat, blood vessels, duodenum and the like. With a syringe with a 25 gauge needle, 10.0 ml of collagenase solution (standard incubation medium with 0.2 mg/ml C. histolyticum collagenase and 2 mg/ml BSA (Fraction V) (both from Calbiochem, San Diego, California, U.S.A.)) was injected into the pancreas, which was then transferred to a 25 ml flask, gassed with 100% O2, and shaken on a shaker as rapidly as possible for 10 minutes at 37° C. Then the liquid was poured off and replaced with another 5.0 ml of collagenase solution, and the gassing with 100% O2 and shaking for 10 minutes at 37° C. were repeated. The replacement of liquid, gassing with 100% O2 and shaking at 37° C. were again repeated. If, by visual inspection, digestion appeared to be incomplete, vigorous shaking by hand with 1 minute incubation at 37° C. were repeated until digestion was complete. The mass was then broken up further by passing chunks through a large bore serological pipette, and then a small bore pipette. Very large chunks, fur and debris were removed with a long Pasteur pipette. Then half of the resulting acinar cell suspension was placed into each of two 15 ml clear, polystyrene tubes, each containing 4.0 ml of 4.0% BSA solution (standard incubation medium with 40 mg/ml BSA (Fraction V) and 2 mM, rather than 0.5 mM, CaCl2). Both combinations were mixed thoroughly and debris was again removed. The resulting suspensions were spun at medium speed in a tabletop centrifuge for 30 seconds, the supernatants were discarded, and the pellets were resuspended in 4.0 ml of 4.0% BSA and 4.0 ml of 0.2% BSA solution (standard suspension medium with 2 mg/ml BSA (Fraction V) and 2 mM, rather than 0.5 mM, CaCl2), the suspension was again cleaned of debris, and then spun as above with the tabletop centrifuge. The supernatants were discarded and the pellets again washed with 4.0 ml of 4% BSA solution and repelleted as above with the tabletop centrifuge. Again, the supernatants were discarded and the pellets were carried into one 250 ml Erlenmeyer flask, to which 50.0 ml of 1% BSA solution (standard incubation medium with 10 mg/ml BSA (Fraction V) and 5 mM theophylline) had been added. When the cells were not used immediately, the suspension was gassed with 100% O2. The preparation was acceptable for use in an assay only if the cells were fine and well dispersed and there was nothing visible in the preparation other than cells. […]

Row | Compound | HALF-LIFE [1] | IC50 ([2]; read-out: concentration required to displace half of the 125I-VIP / occupy half the receptor sites, rat lung membrane receptor preparation at 0.4 mg protein/ml) | Potency (Amylase Release Assay) [3] | RELATIVE IC50 [2]
1 | CC[C@H](C)[C@H](NC(=O)[C@H](CO)NC(=O)[C@H](CC(N)=O)NC(=O)[C@H](CC(C)C)NC(=O)[C@H](Cc1ccc(O)cc1)NC(=O)[C@H](CCCCN)NC(=O)[C@H](CCCCN)NC(=O)[C@@H](NC(=O)[C@H](C)NC(=O)[C@H](CCSC)NC(=O)[C@H](CCC(N)=O)NC(=O)[C@H](CCCCN)NC(=O)[C@H](CCCNC(=N)N)NC(=O)[C@H](CC(C)C)NC(=O)[C@H](CCCNC(=N)N)NC(=O)[C@@H](NC(=O)[C@H](Cc1ccc(O)cc1)NC(=O)[C@H](CC(N)=O)NC(=O)[C@H](CC(=O)O)NC(=O)[C@@H](NC(=O)[C@H](Cc1ccccc1)NC(=O)[C@@H](NC(=O)[C@H](C)NC(=O)[C@H](CC(=O)O)NC(=O)[C@H](CO)NC(=O)[C@@H](N)Cc1c[nH]cn1)C(C)C)[C@@H](C)O)[C@@H](C)O)C(C)C)C(=O)N[C@@H](CC(C)C)C(=O)N[C@@H](CC(N)=O)C(N)=O [Human VIP, HSDAVFTDNYTRLRKQMAVKKYLNSILN-NH2, reference compound] | 16 min | ~0.5 nM | 1.0 | 
2 | CC[C@H](C)[C@H](NC(=O)[C@H](CO)NC(=O)[C@H](CC(N)=O)NC(=O)[C@H](CC(C)C)NC(=O)[C@H](Cc1ccc(O)cc1)NC(=O)[C@H](CCCCN)NC(=O)[C@H](CCCCN)NC(=O)[C@@H](NC(=O)[C@H](C)NC(=O)[C@H](CCSC)NC(=O)[C@H](CCC(N)=O)NC(=O)[C@H](CCCCN)NC(=O)[C@H](CCCNC(=N)N)NC(=O)[C@H](CC(C)C)NC(=O)[C@H](CCCNC(=N)N)NC(=O)[C@@H](NC(=O)[C@H](Cc1ccc(O)cc1)NC(=O)[C@H](CC(N)=O)NC(=O)[C@H](CC(=O)O)NC(=O)[C@@H](NC(=O)[C@H](Cc1ccccc1)NC(=O)[C@@H](NC(=O)[C@H](C)NC(=O)[C@H](CC(=O)O)NC(=O)[C@H](CO)NC(=O)[C@@H](N)Cc1c[nH]cn1)C(C)C)[C@@H](C)O)[C@@H](C)O)C(C)C)C(=O)N[C@@H](CC(C)C)C(=O)N[C@@H](CC(N)=O)C(=O)O [reference compound] |  |  | 0.4 | 
3 | H-HSDAVFSDSYSRFRRSMAVRRYLSNVLT-NH2 [Analog V, HSDAVFSDSYSRFRRSMAVRRYLSNVLT-(NH2)i] | 2.5 min |  | 0.2 | 4.2
4 | HSDALFTDTYTRLRKQMAMKKYLNSVLN-NH2 [Guinea Pig VIP, reference compound] |  |  | 0.05 | 20
5 | HSDAVFTDNYSRFRKQMAVKKYLNSVLT-NH2 [Chicken VIP, reference compound] |  |  | 0.5 | 1.4
6 | HSDAVFTDNYSRFRKQMAVRRFVNSVLT-NH2 [Analog IX, HSDAVFTDNYSRFRKQMAVRRFVNSVLT-(NH2)i] |  |  | 7 × 10^-4 | 175
7 | HSDAVFTDNYSRYRRQMAVKKYLNSVLT-NH2 [Analog VII, HSDAVFTDNYSRYRRQMAVKKYLNSVLT-(NH2)i] |  |  | 1.0 × 10^-3 | 86
8 | HSDAVYSDSFRSYRSRVALSRFVRNVVT-NH2 [Analog III, HSDAVYSDSFRSYRSRVALSRFVRNVVT-(NH2)i] | 4 min |  | 1.0 × 10^-3 | 2350
9 | HSDAVYSDSFSRYRRSVALRRFVSNVVT-NH2 [Analog I, HSDAVYSDSFSRYRRSVALRRFVSNVVT-(NH2)i] | 4 min |  | 5 × 10^-4 | 140
10 | HSDAVYSDSFSRYRSRVALSRFVRNVVT-NH2 [Analog II, HSDAVYSDSFSRYRSRVALSRFVRNVVT-(NH2)i] | 7.5 min |  | 1 × 10^-4 | 550
11 | HSDAVYTDNFSRYRKQVALKKFVNSVVT-NH2 [Analog IV, HSDAVYTDNFSRYRKQVALKKFVNSVVT-(NH2)i] | 5 min |  | 4.4 × 10^-3 | 1040
